The term IC50 denotes the midpoint of a concentration-inhibition curve.

From US20140011867A1, “EFFECT OF BORRELIDIN FOR CONTROLLING SOYBEAN PHYTOPHTHORA ROOT ROT” (ZHEJIANG HISUN PHARMACEUTICAL CO., LTD., priority 2011, published 2014) come the findings set out here.

Converted amounts (≈) assume the structure as drawn. Like-named read-outs stand apart in the source and are kept apart here.

This assay concerns Phytophthora sajae Kaufmann & Gerdeman. Nature of the assay: Mycelial growth inhibition assay (growth rate method). It counts as cell-based. Further details: IC50 as fraction of that of metalaxyl: unit not given beside the values. The protocol: Growth rate method was used in the assays. […] Phytophthora sajae Kaufmann & Gerdeman cultures after 7 days of culture were punched using a sterile punch (Ø0.5cm) and put on standby, and the cultures were later transferred onto […] (CA) plate culture media and placed at a temperature of 27±1° C., and colony diameters were measured after 7 days of culture.

[1] abbreviates: mycelial growth, CA plate, 27±1° C., colony diameter after 7 days.
[2] abbreviates: mycelial growth inhibition assay.

With `COCC(=O)N(c1c(C)cccc1C)C(C)C(=O)OC` (stereo not shown) [Metalaxyl, reference compound], the IC50 (Phytophthora, 168 h, mycelial growth, CA plate, 27±1° C., colony diameter after 7 days, read-out: IC50) worked out at 0.35 µg/mL (≈ 1.25 µM). Under setting [1], the IC95 was found to be 6.85 µg/mL (≈ 24.5 µM).

Turning to Borrelidin, under setting [2], the “IC50 as fraction of that of metalaxyl” value is listed as 1/62 and the “IC95 as fraction of that of metalaxyl” value is 1/263. The same molecule showed an IC50 (mycelial growth inhibition assay, unit inferred) of 0.0056 µg/mL. For the setting “mycelial growth inhibition assay, unit not given”, this molecule displayed an IC95 of 0.026. Moreover, the IC95 under setting [1] amounted to 0.026 µg/mL.
